In patent publication US20180116960A1, “TREATING FUNGAL INFECTION OF THE NAIL UNIT” (priority 2009, published 2018):
Where a name gives a salt, the structure may show the parent alone.

Key:
[1] = solubility of terbinafine HCl in solvents; assay type: physicochemical; conditions: thermodynamic from solid
Procedure: (§1) With 0.1% Tween-80 in water, the solubility of terbinafine HCl in terbinafine HCl-PEG 3350 blend (75/25, W/W) was 4 mg/mL. […] The final pH was 3.0.
(§2) When DMSO is used as the solvent, the solubility of terbinafine HCl was close to 100 mg/mL. […] The solution was made by weighing 100 mg of terbinafine HCl powder in a glass vial and then adding 1 ml of DMSO solvent. The glass vial was sealed and vortexed for 5 minutes with a mini vortexor. The resulting solution was clear.

[2] = stability of terbinafine HCl solutions on standing; assay type: physicochemical
Procedure: as §1, §2

solubility at 5 min ([1]; DMSO, organic solvent or mixture): ~100 mg/mL
solubility ([1]; aqueous buffer, phosphate-buffered saline (PBS 1×, starting pH 7.4), final pH 4.2): 780 µg/mL
solubility ([1]; aqueous with cosolvent or surfactant or cyclodextrin, 0.1% Tween-80 in water, terbinafine HCl in terbinafine HCl-PEG 3350 blend (75/25, W/W), final pH 3.0): 4000 µg/mL
appearance of solution on standing ([2]; 0.1% Tween-80 in water, room temperature, 5 days): clear but turned cloudy
time the solution was stable ([2]; DMSO solution): up to 7 days
concentration of solution on storage ([2]; DMSO solution, after 14 days up to 22 days): remained constant
concentration of solution on storage ([2]; DMSO solution, at 14 days): 90 mg/mL
Structure (SMILES): CN(C/C=C/C#CC(C)(C)C)Cc1cccc2ccccc12 [terbinafine HCl]
